Article PMC7926471 (Viruses, 2021)
Entries after “also recorded” stand apart in the source; their conditions may differ. Like-named read-outs stand apart in the source and are kept apart here.

Columns and labels:
HCoV-229E [1] = assay: Viral replication inhibition assay: HCoV-229E in MRC5 cells, PFU assay; type: cell-based, Human Coronavirus 229E
Vero E6 cells = assay: Cytotoxicity in Vero E6 cells (WST-1 assay among others); type: cell-based
HCoV-229E [2] = test system: HCoV-229E; set-up: method as in earlier work; conditions: Huh7 cells; cited from earlier work
[3] = Cytotoxicity in MRC5 cells, MTT assay; conditions: human
MRC5 cells = assay: Cytotoxicity in MRC5 cells, MTT assay; conditions: drugs tested against HCoV-229E
MERS-CoV = conditions: in vitro; cited from earlier work
in vitro = conditions: human
[4] = Cytotoxicity in Vero E6 cells (WST-1 assay among others); type: cell-based; conditions: African green monkey; Vero E6 cells, 48 h
SARS-CoV-2 [5] = conditions: cited from earlier work
SARS-CoV-2 [6] = conditions: especially in primary human bronchial epithelium cells; cited from earlier work
lung cancer = conditions: nasal administration; cited from earlier work
[7] = single 500 mg oral dose; cited from earlier work
[8] = in vivo; cited from earlier work
SARS-CoV-2 [9] = assay: SARS-CoV-2 replication in Vero E6 cells, qRT-PCR of envelop (E) gene
SARS-CoV-2 [10] = conditions: SARS-CoV-2 infection; cited from earlier work
[11] = test system: HCoV-229E, SARS-CoV and MERS-CoV; conditions: cited from earlier work
[12] = Human coronavirus 229E, MRC5, 48 h, HCoV-229E in MRC5 cells, high titer MOI = 1, PFU assay after 48 h, read-out: EC50
[13] = SARS-CoV-2 in Vero E6 cells, qRT-PCR after 48 h

CCN(CC)CCCC(C)Nc1ccnc2cc(Cl)ccc12 (stereo not shown) [Chloroquine, chloroquine diphosphate]
reduction of the viral titer (HCoV-229E [1]; HCoV-229E): 60% | EC50 (HCoV-229E [1]; [12]): 0.005 mM | HCoV-229E replication, low viral load (in words) (HCoV-229E [1]; MOI = 0.01, Figure 2): inhibits HCoV-229E replication | effect of combinatory treatment on HCoV-229E (in words) (HCoV-229E [1]; combinations of lopinavir/ritonavir, chloroquine, resveratrol, MOI 0.01, Figure 2B): did not observe a synergistic effect | effect when cells were treated before or after the infection (in words) (HCoV-229E [1]; pre-treated 3 h or post-treated 4 h, MOI 1, Figure 3): did not observe a significant difference | cytotoxicity on Vero E6 cells (in words) (Vero E6 cells; 48 h): toxic; also recorded: high cytotoxicity | EC50 (HCoV-229E [2]): 3.3 µM

CCN(CC)C(=S)SSC(=S)N(CC)CC [Disulfiram, disulfiram]
SI (selectivity index, CC50/EC50) (HCoV-229E [1]; HCoV-229E, MRC5 cells): 60.56 | EC50 (HCoV-229E [1]; [12]): 0.000139 mM | CC50 at 48 h ([3]; MRC5 cells): 8.4 µM | cytotoxicity (in words) (MRC5 cells): highly cytotoxic

CN(C)C(=O)C(CCN1CCC(O)(c2ccc(Cl)cc2)CC1)(c1ccccc1)c1ccccc1 [Loperamide, loperamide]
CC50 at 48 h [3]: 10.1 µM | cytotoxicity (in words) (MRC5 cells): highly cytotoxic

CO[C@H]1C[C@@H]2CC[C@@H](C)[C@@](O)(O2)C(=O)C(=O)N2CCCC[C@H]2C(=O)O[C@H]([C@H](C)C[C@@H]2CC[C@@H](O)[C@H](OC)C2)CC(=O)[C@H](C)/C=C(\C)[C@@H](O)[C@@H](OC)C(=O)[C@H](C)C[C@H](C)/C=C/C=C/C=C/1C [Rapamycin, rapamycin]
EC50 (HCoV-229E [1]; Human coronavirus 229E, MRC5, 48 h): 0.00228 mM | reduction of MERS-CoV infection (MERS-CoV): over 60% | CC50 at 48 h (in vitro): 2.5 µM | cytotoxicity (in words) (MRC5 cells): highly cytotoxic

Oc1ccc(/C=C/c2cc(O)cc(O)c2)cc1 [Resveratrol, resveratrol]
reduction of the viral titer (HCoV-229E [1]; HCoV-229E): 80% | CC50 at 48 h [4]: 48.2 µM | non-cytotoxic doses (Vero E6 cells; in vitro, Vero E6): up to 25 µM | EC50 (SARS-CoV-2 [5]): 4.48 µM | replication of SARS-CoV-2 (in words) (SARS-CoV-2 [6]): inhibited the replication | reduction of tumor multiplicity (lung cancer): 27% | reduction of tumor volume (lung cancer): 45% | Tmax [7]: 1.3 h | bioavailability (in words) [8]: poor bioavailability | inhibition of SARS-CoV-2 replication (SARS-CoV-2 [9]; 25 µM, Vero E6 cells): 3 logs | EC50 (SARS-CoV-2 [9]; [13]): 10.7 µM | EC90 (SARS-CoV-2 [9]; [13]): 11.4 µM

CCCC(CCC)C(=O)O [VPA, valproic acid]
EC50 (HCoV-229E [1]; Human coronavirus 229E, MRC5, 48 h, HCoV-229E in MRC5 cells, PFU assay after 48 h, value in mM): 1.34 mM | CC50 at 48 h ([3]; MRC5 cells): 4000 µM | cytotoxicity (in words) (MRC5 cells): highly cytotoxic

CCN(CCO)CCCC(C)Nc1ccnc2cc(Cl)ccc12 (stereo not shown) [hydroxychloroquine]
EC90 (SARS-CoV-2 [10]): 5.47 µM

Cc1cccc(C)c1OCC(=O)N[C@@H](Cc1ccccc1)[C@@H](O)C[C@H](Cc1ccccc1)NC(=O)[C@H](C(C)C)N1CCCNC1=O [lopinavir]
EC50 (HCoV-229E [1]; HCoV-229E in MRC5 cells, high titer MOI = 1, PFU assay after 48 h, read-out: EC50): 0.0088 mM | EC50 (HCoV-229E [1]; Human coronavirus 229E, MRC5, 48 h, HCoV-229E in MRC5 cells, high titer MOI = 1, PFU assay after 48 h): 0.00881 mM

COc1cc(/C=C/c2ccc(O)cc2)cc(OC)c1 [pterostilbene]
replication of SARS-CoV-2 (in words) (SARS-CoV-2 [6]): inhibited the replication

CC(C)c1nc(CN(C)C(=O)N[C@H](C(=O)N[C@@H](Cc2ccccc2)C[C@H](O)[C@H](Cc2ccccc2)NC(=O)OCc2cncs2)C(C)C)cs1 [ritonavir]
anti-CoV activity (in words) [11]: no selective anti-CoV activity
